Data on one compound can be found in US12281080B2, “Quinoline-based compounds and methods of inhibiting CDK8/19” (University of South Carolina, priority 2018, dated 2025).

What all share (assay): KINOMEscan scanMAX
Holding throughout (format): binding
Conditions in all cases: 2000 nM; read-out: Percent Control

The target in assay [1] is ABL1-nonphosphorylated (Homo sapiens (Human), UniProt P00519).
Assay [2] deals with IRAK3 (Homo sapiens (Human), UniProt Q9Y616).
In assay [3] the target is EGFR(S752-1759del) (Homo sapiens (Human), UniProt P00533, DEL752-759).
Chain of EGFR(S752-1759del) (P00533 other isoform, or with tags, fused parts or gaps del 1-668/del 752-759/del 1012-1210 limits assumed): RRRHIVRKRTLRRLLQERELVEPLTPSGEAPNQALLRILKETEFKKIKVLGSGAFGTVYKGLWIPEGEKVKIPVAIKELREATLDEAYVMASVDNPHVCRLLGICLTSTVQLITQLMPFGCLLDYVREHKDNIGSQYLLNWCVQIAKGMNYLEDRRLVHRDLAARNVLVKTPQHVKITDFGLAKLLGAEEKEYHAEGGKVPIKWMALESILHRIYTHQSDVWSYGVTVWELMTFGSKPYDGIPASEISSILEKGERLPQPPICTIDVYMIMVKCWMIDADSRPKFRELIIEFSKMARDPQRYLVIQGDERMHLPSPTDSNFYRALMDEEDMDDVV
The target in assay [4] is KIT(A829P) (Homo sapiens (Human), UniProt P10721, A829P).
Chain of KIT(A829P) (P10721 26-976 A829P): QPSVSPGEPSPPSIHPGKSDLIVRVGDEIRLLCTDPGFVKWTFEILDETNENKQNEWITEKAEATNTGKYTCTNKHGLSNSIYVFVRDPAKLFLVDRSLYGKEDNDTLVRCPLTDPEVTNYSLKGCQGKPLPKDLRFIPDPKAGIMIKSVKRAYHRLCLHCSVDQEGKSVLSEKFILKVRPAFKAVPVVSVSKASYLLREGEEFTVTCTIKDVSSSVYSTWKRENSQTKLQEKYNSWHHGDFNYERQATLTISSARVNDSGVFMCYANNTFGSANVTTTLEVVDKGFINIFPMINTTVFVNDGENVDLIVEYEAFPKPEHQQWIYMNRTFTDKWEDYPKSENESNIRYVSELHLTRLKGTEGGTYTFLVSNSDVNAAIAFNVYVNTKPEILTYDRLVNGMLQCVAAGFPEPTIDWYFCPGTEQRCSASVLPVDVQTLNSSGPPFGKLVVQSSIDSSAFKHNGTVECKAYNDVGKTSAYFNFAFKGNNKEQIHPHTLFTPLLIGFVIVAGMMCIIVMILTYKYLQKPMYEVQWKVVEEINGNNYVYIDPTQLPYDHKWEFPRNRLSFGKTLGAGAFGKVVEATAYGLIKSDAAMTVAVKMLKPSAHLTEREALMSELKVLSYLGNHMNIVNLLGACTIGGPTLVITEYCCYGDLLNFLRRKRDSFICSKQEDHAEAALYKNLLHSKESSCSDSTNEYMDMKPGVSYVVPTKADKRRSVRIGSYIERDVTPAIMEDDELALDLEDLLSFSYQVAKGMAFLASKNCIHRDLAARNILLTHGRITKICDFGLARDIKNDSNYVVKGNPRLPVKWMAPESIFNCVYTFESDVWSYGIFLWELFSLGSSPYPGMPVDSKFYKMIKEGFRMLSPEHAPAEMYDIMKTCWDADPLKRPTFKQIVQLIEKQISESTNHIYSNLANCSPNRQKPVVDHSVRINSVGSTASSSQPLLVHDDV
Assay [5] addresses FGFR2 (Homo sapiens (Human), UniProt P21802).
In assay [6] the target is MKK7 (MAP2K7) (Homo sapiens (Human), UniProt O14733).
Chain of MKK7 (MAP2K7) (O14733 whole entry): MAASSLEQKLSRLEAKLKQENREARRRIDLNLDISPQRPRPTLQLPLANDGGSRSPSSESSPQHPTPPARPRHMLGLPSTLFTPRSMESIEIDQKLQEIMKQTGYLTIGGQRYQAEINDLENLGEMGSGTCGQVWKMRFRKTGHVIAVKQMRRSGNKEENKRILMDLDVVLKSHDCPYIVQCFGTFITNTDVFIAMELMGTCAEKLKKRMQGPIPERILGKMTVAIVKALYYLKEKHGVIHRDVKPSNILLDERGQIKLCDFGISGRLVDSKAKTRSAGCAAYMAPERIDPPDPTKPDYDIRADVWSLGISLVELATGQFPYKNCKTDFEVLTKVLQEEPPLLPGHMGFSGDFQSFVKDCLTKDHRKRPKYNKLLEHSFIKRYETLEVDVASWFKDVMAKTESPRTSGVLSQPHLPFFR
The target of assay [7] is TRPM6 (Homo sapiens (Human), UniProt Q9BX84).
The target of assay [8] is BTK (Homo sapiens (Human), UniProt Q06187).
Chain of BTK (Q06187 whole entry): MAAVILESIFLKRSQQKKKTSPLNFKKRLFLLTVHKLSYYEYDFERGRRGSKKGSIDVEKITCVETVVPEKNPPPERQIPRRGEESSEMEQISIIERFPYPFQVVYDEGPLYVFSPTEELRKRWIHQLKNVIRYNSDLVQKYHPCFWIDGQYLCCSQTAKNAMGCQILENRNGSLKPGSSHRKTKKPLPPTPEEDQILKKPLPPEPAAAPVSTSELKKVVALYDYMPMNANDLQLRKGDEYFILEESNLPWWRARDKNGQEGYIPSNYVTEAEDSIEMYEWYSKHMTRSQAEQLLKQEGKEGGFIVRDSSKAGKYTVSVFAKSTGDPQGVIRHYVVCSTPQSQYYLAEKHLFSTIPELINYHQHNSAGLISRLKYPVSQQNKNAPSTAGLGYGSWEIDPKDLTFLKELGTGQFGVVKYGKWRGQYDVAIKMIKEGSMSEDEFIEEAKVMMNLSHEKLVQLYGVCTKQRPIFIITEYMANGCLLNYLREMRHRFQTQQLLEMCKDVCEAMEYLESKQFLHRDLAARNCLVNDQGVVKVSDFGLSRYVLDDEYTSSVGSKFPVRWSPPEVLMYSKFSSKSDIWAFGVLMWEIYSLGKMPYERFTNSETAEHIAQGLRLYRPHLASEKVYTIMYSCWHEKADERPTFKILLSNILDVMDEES
Assay [9] concerns the target FLT3(R834Q) (Homo sapiens (Human), UniProt P36888, R834Q).

Chain of FGFR2 (P21802 22-821): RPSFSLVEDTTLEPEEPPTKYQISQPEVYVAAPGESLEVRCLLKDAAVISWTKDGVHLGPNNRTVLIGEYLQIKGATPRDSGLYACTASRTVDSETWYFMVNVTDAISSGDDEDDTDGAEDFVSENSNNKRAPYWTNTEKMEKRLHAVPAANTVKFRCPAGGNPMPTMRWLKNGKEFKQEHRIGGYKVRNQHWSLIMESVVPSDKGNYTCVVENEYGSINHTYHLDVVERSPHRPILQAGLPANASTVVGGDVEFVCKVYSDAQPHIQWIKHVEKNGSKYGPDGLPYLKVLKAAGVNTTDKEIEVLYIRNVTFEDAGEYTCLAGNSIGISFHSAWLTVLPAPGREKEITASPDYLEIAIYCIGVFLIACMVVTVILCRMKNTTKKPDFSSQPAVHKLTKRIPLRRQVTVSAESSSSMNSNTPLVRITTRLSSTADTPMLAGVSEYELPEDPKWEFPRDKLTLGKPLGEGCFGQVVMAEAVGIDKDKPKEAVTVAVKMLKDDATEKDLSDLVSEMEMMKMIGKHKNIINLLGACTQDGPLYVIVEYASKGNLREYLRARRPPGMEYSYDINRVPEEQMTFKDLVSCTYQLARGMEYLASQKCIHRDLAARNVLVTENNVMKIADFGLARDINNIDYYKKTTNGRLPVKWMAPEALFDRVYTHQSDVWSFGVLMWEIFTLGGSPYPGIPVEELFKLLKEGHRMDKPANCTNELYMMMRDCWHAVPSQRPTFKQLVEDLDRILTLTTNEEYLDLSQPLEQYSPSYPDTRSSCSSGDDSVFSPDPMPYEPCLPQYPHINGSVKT
Chain of ABL1-nonphosphorylated (P00519 whole entry): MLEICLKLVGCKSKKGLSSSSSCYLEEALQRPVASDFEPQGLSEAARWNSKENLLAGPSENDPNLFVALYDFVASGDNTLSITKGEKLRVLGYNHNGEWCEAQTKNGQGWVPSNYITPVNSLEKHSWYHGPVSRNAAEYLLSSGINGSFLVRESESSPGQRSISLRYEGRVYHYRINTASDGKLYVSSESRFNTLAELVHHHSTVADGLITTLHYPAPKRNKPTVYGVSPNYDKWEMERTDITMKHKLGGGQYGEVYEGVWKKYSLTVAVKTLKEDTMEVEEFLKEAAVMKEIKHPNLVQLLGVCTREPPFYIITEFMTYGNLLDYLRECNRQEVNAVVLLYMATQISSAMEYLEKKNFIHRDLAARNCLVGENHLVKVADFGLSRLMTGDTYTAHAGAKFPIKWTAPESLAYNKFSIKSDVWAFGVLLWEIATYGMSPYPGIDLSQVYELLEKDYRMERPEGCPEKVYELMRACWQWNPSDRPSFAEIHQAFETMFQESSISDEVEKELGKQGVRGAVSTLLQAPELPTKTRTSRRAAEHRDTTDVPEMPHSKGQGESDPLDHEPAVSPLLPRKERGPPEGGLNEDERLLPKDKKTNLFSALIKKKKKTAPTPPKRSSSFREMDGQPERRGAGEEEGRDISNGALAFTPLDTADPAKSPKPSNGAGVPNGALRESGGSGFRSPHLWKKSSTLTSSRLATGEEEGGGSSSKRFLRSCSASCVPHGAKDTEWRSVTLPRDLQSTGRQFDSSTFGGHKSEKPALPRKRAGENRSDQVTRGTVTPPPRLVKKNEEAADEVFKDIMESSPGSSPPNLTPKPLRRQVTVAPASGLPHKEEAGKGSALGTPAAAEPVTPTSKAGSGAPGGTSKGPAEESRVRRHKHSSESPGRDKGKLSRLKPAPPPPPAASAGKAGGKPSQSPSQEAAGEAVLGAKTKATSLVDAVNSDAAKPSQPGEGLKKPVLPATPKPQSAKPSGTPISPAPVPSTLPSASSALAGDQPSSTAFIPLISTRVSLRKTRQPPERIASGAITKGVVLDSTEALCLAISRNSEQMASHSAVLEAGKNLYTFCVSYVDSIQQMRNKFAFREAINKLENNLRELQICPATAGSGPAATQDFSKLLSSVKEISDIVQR
Chain of IRAK3 (Q9Y616 whole entry): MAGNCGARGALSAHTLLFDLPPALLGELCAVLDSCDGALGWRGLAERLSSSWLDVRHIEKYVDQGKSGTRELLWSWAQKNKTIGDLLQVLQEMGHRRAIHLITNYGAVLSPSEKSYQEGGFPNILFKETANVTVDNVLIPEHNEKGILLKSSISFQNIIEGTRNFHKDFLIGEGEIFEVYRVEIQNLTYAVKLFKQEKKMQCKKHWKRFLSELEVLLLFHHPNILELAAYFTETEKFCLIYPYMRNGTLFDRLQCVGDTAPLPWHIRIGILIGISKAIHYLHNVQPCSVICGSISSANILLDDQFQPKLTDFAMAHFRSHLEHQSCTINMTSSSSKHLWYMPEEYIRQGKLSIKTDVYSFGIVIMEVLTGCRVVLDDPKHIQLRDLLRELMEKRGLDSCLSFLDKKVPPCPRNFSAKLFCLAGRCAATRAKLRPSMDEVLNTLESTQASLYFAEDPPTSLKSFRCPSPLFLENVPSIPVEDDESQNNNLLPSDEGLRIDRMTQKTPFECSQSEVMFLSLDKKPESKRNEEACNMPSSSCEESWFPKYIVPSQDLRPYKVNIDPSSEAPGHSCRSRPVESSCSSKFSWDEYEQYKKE

For `CN1CCN(C(=O)c2ccc3cc(CCNc4ccnc5ccc(C#N)cc45)ccc3c2)CC1` [compound 6148, 4-((2-(6-(4-methylpiperazine-1-carbonyl)naphthalen-2-yl)ethyl)amino)quinoline-6-carbonitrile], the remaining binding at 2 µM in [1] worked out at 71%; in [2] it was 94%; in assay [3], 99%; in assay [4], 82%; in [5], 98%; in [6], 75%. Also, the remaining binding at 2 µM came out at 88% in assay [7], 78% in assay [8] and 70% in assay [9].
